According to a melting point compilation (Tetko et al.):

| melting point [°C] | Compound |
| --- | --- |
| -20 | Clc1cccc2cccnc12 |
| 77.5 | CCC(C(=O)OC)c1ccccc1 (stereo not given) |
| 98.5 | Nc1ccc2ccccc2c1N |
| 114 | Cc1cc(C)c2c(=O)n3ccccc3cc2c1 |
| 168 | Cc1ccc(C2CC(c3ccc4ccccc4c3)=NN2c2ccccc2)cc1 (stereo not given) |
| 213 to 217 | Cc1cc(C)nc(S)n1 |
| 147 to 148 | COc1ccc2cc(Br)ccc2c1CC#N |
| 222 | Cn1c(=O)c(C2=NNC(=O)C2=NNc2cccc(Cl)c2)c(O)c2ccccc21 |
| 176 to 178 | O=C(O)c1cccc2ccsc12 |
| 159 | Cc1cccc(O)n1 |
| 227 to 229 | CC(CC(=O)O)c1ccc(C(=O)O)cc1 (stereo not given) |
| 133 | O=[N+]([O-])c1ccc(N=Nc2ccccc2)cc1 |
| 160 to 162 | CCSC(SCC)=C(C#N)c1ccccn1 |
| 25.5 | O=Cc1c(F)c(F)c(F)c(F)c1F |
| 63.7 to 65.5 | N#Cc1cccc(C(=O)Cc2cccc(Oc3ccccc3)c2)c1 |
| 160 to 161 | Cc1c(C)c(C)c2c(c1C)CC2=O |
| 44.5 | Cc1cc(C)c(N=C=O)c(C)c1 |
| 9 | ICCCCCI |
| 94.5 | Brc1cn[nH]c1 |
| 113 to 115 | NNC(=O)c1cccc(OCc2ccccc2)c1 |
| 247 to 248 | CC(=O)Nc1cc(NC(C)=O)c([N+](=O)[O-])cc1[N+](=O)[O-] |
| 215 | O=[N+]([O-])c1cc([N+](=O)[O-])c(/C=C/c2ccc3c(c2)OCO3)cc1/C=C\c1ccc2c(c1)OCO2 |

| melting point [°C] | Compound |
| --- | --- |
| 143 | Cc1ccc(C(c2ccc(C)o2)c2cc(I)cc(I)c2O)o1 |
| 167 | O=C(O)/C=C/c1cccc(F)c1 |
| 181 to 185 | CC1(C)C2CCC13CS(=O)(=O)N[C@H]3C2 (stereo not given in full) |
| 52 | O=[N+]([O-])c1ccnc(Cl)c1 |
| 199 to 201 | COc1ccc(NC(N)=S)c(OC)c1 |
| 307 | Nc1ccc([N+](=O)[O-])c2c1C(=O)c1c(Cl)ccc(Cl)c1C2=O |
| -100 | CCCCC(C)CC (stereo not given) |
| 132 | CCOC(=O)c1c(C)cc(O)cc1O |
| 56 | COc1ccc(C#N)c(OC)c1OC |
| 28 | COC(=O)c1c(Cl)cccc1Cl |
| 102 | CCCCCCCc1ccc(C(=O)O)cc1 |
| 26 to 30 | Cc1cccc(Br)c1[N+](=O)[O-] |
| 54 | CN(C)C(=O)C(C(F)(F)F)C(F)(F)F |
| 128 to 131 | CON1C(=O)C(=O)N(OC)C2CCCCC21 (stereo not given) |
| 260 | O=C(O)c1cncc(-c2ccccc2)c1 |
| 258 | Cc1ccccc1/C=C(/C#N)c1nc2ccccc2c(=O)[nH]1 |
| 120 | CCOC(=O)N1CCNCC1 |
| 283 to 289 | Oc1ccc(C(c2ccccc2)(c2ccccc2)c2ccccc2)cc1 |
| 164 to 165 | COC(=O)[C@@H]1[C@H](c2ccccc2)C(C#N)=C(C(SC)SC)[C@@]1(O)c1ccccc1 |
| 49 | CN(C)c1cccc2cccc(N(C)C)c12 |
| 82 | COC(=O)c1cc(C)[nH]n1 |
| 218 | C=C(C(=O)O)C1CCC2C(=CCC3C(C)(C)C(O)CCC23C)C1 (stereo not given) |

| melting point [°C] | Compound |
| --- | --- |
| 146 to 148 | CC1(C)CC(=O)c2cc(-c3ccccc3)n(Cc3cccnc3)c2C1 |
| 58 | O=C(O)CCc1ccco1 |
| 174 to 178 | Cc1cc2oc(-c3ccccc3)cc(=O)c2cc1Cl |
| 232 | Oc1ccc(C(O)(c2ccccc2)c2ccc(O)c3ccccc23)c2ccccc12 |
| 158 to 161 | CCCCC#Cc1cncc(C(=O)NN)c1 |
| 211 | Cc1cccc(N/N=C(\C#N)c2nc(C)c(/N=N/c3ccccc3)s2)c1 |
| 188 to 190 | CC(=O)Nc1ccccc1CCN(CCc1ccccc1NC(C)=O)C(C)=O |
| 161 to 162 | CC(C)C1(NC(=O)c2ccccc2)COCOC1=O (racemic) |
| 104 to 105 | O=[N+]([O-])c1cccnc1Oc1cncc(Cl)c1 |
| 113 | Cc1ccc(C(=O)c2nn(-c3ccccc3)/c(=N\N=Cc3ccco3)s2)cc1 |
| 19 | C#CCCCCCCC(=O)O |
| 220 to 222 | Cn1c(CO)cnc1S |
| 141 | O=C1C(=O)N(c2ccccc2)c2ccccc21 |
| 95.5 | O=C(O)CCc1ccccc1Cl |
| 261 to 264 | Cc1c(C)c(C#N)c2ccccc2c1C#N |
| 60.5 to 61.5 | O=C(Oc1c(F)c(F)c(F)c(F)c1F)c1cccc(Oc2ccccn2)c1 |
| 123 to 125 | O=C(NCc1ccc(S(=O)(=O)Cl)s1)c1ccccc1 |
| 106 | CC1CCC(C(C)C)C(OC(=O)OC2CC(C)CCC2C(C)C)C1 (stereo not given) |
| 110 | CC(C)(C)OC(=O)N[C@@H](Cc1ccc(Cl)cc1)C(=O)O |
| 193 | Cc1noc(NS(=O)(=O)c2ccc(N)cc2)c1C |
| 95.5 | Cc1cc(O)c(Cl)c(C)c1Cl |
| 71 | CC(=O)OC1OC(=O)c2ccccc21 (stereo not given) |

| melting point [°C] | Compound |
| --- | --- |
| 279 | c1ccc(-c2ccc3cc4ccc(-c5ccccc5)nc4cc3n2)cc1 |
| 205 | CCCCCC(=O)Cc1cc(O)cc2c1C(=O)Oc1cc(O)c(C(=O)O)c(CCCCC)c1O2 |
| 142 to 145 | O=C(c1ccccc1)c1ccc(N2CCOCC2)cc1 |
| 82 | CCCCCCn1c(=O)c2c(ncn2C)n(C)c1=O |
| 182 | O=C(O)Cc1cc(I)c(Oc2ccc(O)c(I)c2)c(I)c1 |
| 133 to 134 | Cc1n[nH]c(C)c1-c1ccccc1 |
| -83 | CCCN |
| 145 to 146 | C=CCOc1cc(O)c(C(C)=O)c(O)c1 |
| -23 | C[Si](C)(C)N=C=N[Si](C)(C)C |
| 60 to 61 | N#CCCC1CCCCCCCCCCC1=O (stereo not given) |
| 146 to 149 | SC1=NC2(CCCCC2)NN1c1ccccc1 |
| 41 | Oc1ccc(F)c(Cl)c1 |
| 89 to 90 | CCOC(=O)c1c(N)sc2c1CCCCC2 |
| 34 to 35 | CCC(=O)Oc1cccc2ccccc12 |
| 47 to 50 | CSCC[C@@H](NC(=O)OC(C)(C)C)C(=O)O |
| 198 | Cc1ncc(CO)c(N)n1 |
| 92.5 to 93.5 | CC1(CC(=O)O)OCCc2sccc21 (stereo not given) |
| -11 | O=[N+]([O-])c1cc(F)c(F)cc1F |
| 40 | N#CCc1ccc(Cl)c(Cl)c1 |
| 244 to 247 | NC(C(=O)O)(c1ccccc1)c1ccccc1 |
| 287 to 290 | O=C(O)C=C1OC(=O)c2ccccc21 |
| 234 | COc1ccc(NC(=O)C(C)=NNC(N)=S)cc1 |

| melting point [°C] | Compound |
| --- | --- |
| 212 to 216 | O=C(O)c1sc(-c2ccccc2)nc1-c1ccccc1 |
| 48 | OCc1ccc(Cl)nc1 |
| 207 to 209 | CC(=O)NCC(=O)O |
| 175 | N#C/C(=N\Nc1cccc(O)c1)c1nc2ccccc2s1 |
| 217 | CCOc1nc(F)cc2nc(S(=O)(=O)Nc3c(Cl)cccc3C(=O)OC)nn12 |
| 238 to 239 | NC(Cc1c[nH]c2ccc(F)cc12)C(=O)O (racemic) |
| 15.8 | COc1ccc(C(C)=O)c(OC)c1OC |
| 202 | N#CC1=C(N)Oc2c(c(C(F)(F)F)nn2-c2ccccc2)C1c1ccc(F)cc1 (stereo not given) |
| 32.5 | O=c1ccocc1 |
| 166 | CC(C)=C1C(=O)NN(c2ccccc2)C1=O |
| -50 | CCCC(C)I (stereo not given) |
| 211 to 214 | C=CCn1c(S)nnc1-c1ccc2ncccc2c1 |
| 220 | CC(=O)Nc1ccc(S(N)(=O)=O)cc1 |
| 450 | O=c1oc2c(O)c(O)cc3c(=O)oc4c(O)c(O)cc1c4c23 |
| 187 | O=C(/C=C/c1ccc(-c2ccc([N+](=O)[O-])cc2)o1)c1ccco1 |
| 240 | CC(=O)Nc1ccc(/C(=C\c2ccccc2NC(C)=O)C(=O)O)cc1 |
| 175 to 179 | Nc1c(F)c(F)c(-c2c(F)c(F)c(N)c(F)c2F)c(F)c1F |
| 92 | Brc1ccc2cc[nH]c2c1 |
| -75 | CCOCCC(=O)OCC |
| 69 to 72 | N#Cc1ccc(Cn2cncn2)cc1 |
| 258 to 260 | CCOC(=O)C(C#N)=C(N)c1cc2cc(Br)cc(Br)c2oc1=O |

| Compound | melting point [°C] |
| --- | --- |
| CC12CCCCC1CCC1C2CCC2(C)C(OCc3ccccc3)CCC12 (stereo not given) | 160 |
| CC#Cc1cc(C)nc(Nc2ccccc2)n1 | 133 |
| C=Cc1c2ccccc2cc2ccccc12 | 64 to 66 |
| CC(C)(C)N=C=O | 85.5 |
| CC(COc1ccc(Oc2ccccc2)cc1)Oc1ccccn1 (stereo not given) | 49 |
| CCCCc1ccc2ccccc2c1 | -5 |
| C[C@]12CCC(=O)C=C1CC[C@@H]1[C@@H]2CC[C@]2(C)C(=O)CC[C@@]12O | 256 to 260 |
| CN1C(=O)C(O)N=C(c2ccccc2Cl)c2cc(Cl)ccc21 (stereo not given) | 206 |
| N[C@@H](Cc1cc(Br)c(O)c(Br)c1)C(=O)O | 245 |
| CSC(C)=NOC(=O)N(C)SN(C)C(=O)ON=C(C)SC | 173 |
| N#CC(C#N)=Cc1ccco1 | 70 to 74 |
| CCCCC(CC)COC(=O)OOC(C)(C)C (stereo not given) | -50 |
| Cc1ccc(-c2ccc(C=C3C(=O)NC(=O)NC3=O)o2)cc1 | 265 |
| ClCc1cc(Cl)cc(Cl)c1 | 36 |
| Fc1cccc(F)c1CCl | 34 |
| CNC(=O)ON=C(C)C(C)S(C)(=O)=O (stereo not given) | 87 |
| N#CCN1CCCCC1 | 25 |
| OCCN1CCN(Cc2ccc(F)cc2)CC1 | 55 to 56 |
| CCCCC1C(=O)NC(=O)N(C2CCCCC2)C1=O (stereo not given) | 84 |
| Brc1ccc2c(c1)Oc1ccc(Br)cc1O2 | 193 |
| Cc1ccc(S(=O)(=O)N2C(C)C2c2ccccc2)cc1 (stereo not given) | 188 to 190 |
